Experimental data reported in paper PMC4832243, “Discovery of Potent VEGFR-2 Inhibitors based on Furopyrimidine and Thienopyrimidne Scaffolds as Cancer Targeting Agents” (Scientific Reports, 2016).

How the values were obtained:
[1] = system: HCT-116; test: NCI 60 cell line panel (SRB), HCT-116; format: cell-based; settings: Homo sapiens; HCT-116, Colon Cancer; single dose of 10 μM; read-out: Cell Growth Percent
[2] = system: KM12; test: NCI 60 cell line panel (SRB), KM12; format: cell-based; settings: Homo sapiens; KM12, Colon Cancer; single dose of 10 μM; read-out: Cell Growth Percent
[3] = system: MDA-MB-231/ATCC; test: NCI 60 cell line panel (SRB), MDA-MB-231/ATCC; format: cell-based; settings: Homo sapiens, Breast Cancer, single dose of 10 μM, read-out: Cell Growth Percent
[4] = system: A549/ATCC; test: NCI 60 cell line panel (SRB), A549/ATCC; format: cell-based; settings: Homo sapiens, Non-Small Cell Lung Cancer, single dose of 10 μM, read-out: Cell Growth Percent
[5] = system: SK-MEL-28; test: NCI 60 cell line panel (SRB), SK-MEL-28; format: cell-based; settings: Homo sapiens; SK-MEL-28, Melanoma; single dose of 10 μM; read-out: Cell Growth Percent
[6] = system: SF-295; test: NCI 60 cell line panel (SRB), SF-295; format: cell-based; settings: Homo sapiens; SF-295, CNS Cancer; single dose of 10 μM; read-out: Cell Growth Percent
[7] = system: UACC-257; test: NCI 60 cell line panel (SRB), UACC-257; format: cell-based; settings: Homo sapiens; UACC-257, Melanoma; single dose of 10 μM; read-out: Cell Growth Percent
[8] = system: SN12C; test: NCI 60 cell line panel (SRB), SN12C; format: cell-based; settings: Homo sapiens, Renal Cancer, single dose of 10 μM, read-out: Cell Growth Percent
[9] = system: DU-145; test: NCI 60 cell line panel (SRB), DU-145; format: cell-based; settings: Homo sapiens; DU-145, Prostate Cancer; single dose of 10 μM; read-out: Cell Growth Percent
[10] = molecular target: T1, VEGFR-2 (KDR) (Homo sapiens, UniProt P35968); test: In vitro VEGFR-2 tyrosine kinase activity (Kinase-Glo Plus luminescence, BPS Bioscience); format: biochemical; settings: single dose concentration of 10 μM
T1 construct: purchased BPS Bioscience 40301

[11] = system: SW-620; test: NCI 60 cell line panel (SRB), SW-620; format: cell-based; settings: Homo sapiens; SW-620, Colon Cancer; single dose of 10 μM; read-out: Cell Growth Percent
[12] = system: MALME-3M; test: NCI 60 cell line panel (SRB), MALME-3M; format: cell-based; settings: Homo sapiens, Melanoma, single dose of 10 μM, read-out: Cell Growth Percent
[13] = system: T-47D; test: NCI 60 cell line panel (SRB), T-47D; format: cell-based; settings: Homo sapiens, T47D, Breast Cancer, single dose of 10 μM, read-out: Cell Growth Percent
[14] = system: SK-MEL-5; test: NCI 60 cell line panel (SRB), SK-MEL-5; format: cell-based; settings: Homo sapiens; SK-MEL-5, Melanoma; single dose of 10 μM; read-out: Cell Growth Percent
[15] = system: MDA-MB-435; test: NCI 60 cell line panel (SRB), MDA-MB-435; format: cell-based; settings: Homo sapiens; MDA-MB-435, Melanoma; single dose of 10 μM; read-out: Cell Growth Percent
[16] = system: NCI-H460; test: NCI 60 cell line panel (SRB), NCI-H460; format: cell-based; settings: Homo sapiens; NCI-H460, Non-Small Cell Lung Cancer; single dose of 10 μM; read-out: Cell Growth Percent
[17] = system: EKVX; test: NCI 60 cell line panel (SRB), EKVX; format: cell-based; settings: Homo sapiens, Non-Small Cell Lung Cancer, single dose of 10 μM, read-out: Cell Growth Percent
[18] = system: MCF7; test: NCI 60 cell line panel (SRB), MCF7; format: cell-based; settings: Homo sapiens; MCF7, Breast Cancer; single dose of 10 μM; read-out: Cell Growth Percent
[19] = system: NCI-H322M; test: NCI 60 cell line panel (SRB), NCI-H322M; format: cell-based; settings: Homo sapiens, Non-Small Cell Lung Cancer, single dose of 10 μM, read-out: Cell Growth Percent
[20] = system: K-562; test: NCI 60 cell line panel (SRB), K-562; format: cell-based; settings: Homo sapiens, K562; K-562, Leukemia; single dose of 10 μM; read-out: Cell Growth Percent
[21] = system: SNB-19; test: NCI 60 cell line panel (SRB), SNB-19; format: cell-based; settings: Homo sapiens; SNB-19, CNS Cancer; single dose of 10 μM; read-out: Cell Growth Percent
[22] = system: SF-268; test: NCI 60 cell line panel (SRB), SF-268; format: cell-based; settings: Homo sapiens; SF-268, CNS Cancer; single dose of 10 μM; read-out: Cell Growth Percent
[23] = system: RXF 393; test: NCI 60 cell line panel (SRB), RXF 393; format: cell-based; settings: Homo sapiens; RXF 393, Renal Cancer; single dose of 10 μM; read-out: Cell Growth Percent
[24] = system: OVCAR-4; test: NCI 60 cell line panel (SRB), OVCAR-4; format: cell-based; settings: Homo sapiens; OVCAR-4, Ovarian Cancer; single dose of 10 μM; read-out: Cell Growth Percent

T1 sequence (P35968 20-1356): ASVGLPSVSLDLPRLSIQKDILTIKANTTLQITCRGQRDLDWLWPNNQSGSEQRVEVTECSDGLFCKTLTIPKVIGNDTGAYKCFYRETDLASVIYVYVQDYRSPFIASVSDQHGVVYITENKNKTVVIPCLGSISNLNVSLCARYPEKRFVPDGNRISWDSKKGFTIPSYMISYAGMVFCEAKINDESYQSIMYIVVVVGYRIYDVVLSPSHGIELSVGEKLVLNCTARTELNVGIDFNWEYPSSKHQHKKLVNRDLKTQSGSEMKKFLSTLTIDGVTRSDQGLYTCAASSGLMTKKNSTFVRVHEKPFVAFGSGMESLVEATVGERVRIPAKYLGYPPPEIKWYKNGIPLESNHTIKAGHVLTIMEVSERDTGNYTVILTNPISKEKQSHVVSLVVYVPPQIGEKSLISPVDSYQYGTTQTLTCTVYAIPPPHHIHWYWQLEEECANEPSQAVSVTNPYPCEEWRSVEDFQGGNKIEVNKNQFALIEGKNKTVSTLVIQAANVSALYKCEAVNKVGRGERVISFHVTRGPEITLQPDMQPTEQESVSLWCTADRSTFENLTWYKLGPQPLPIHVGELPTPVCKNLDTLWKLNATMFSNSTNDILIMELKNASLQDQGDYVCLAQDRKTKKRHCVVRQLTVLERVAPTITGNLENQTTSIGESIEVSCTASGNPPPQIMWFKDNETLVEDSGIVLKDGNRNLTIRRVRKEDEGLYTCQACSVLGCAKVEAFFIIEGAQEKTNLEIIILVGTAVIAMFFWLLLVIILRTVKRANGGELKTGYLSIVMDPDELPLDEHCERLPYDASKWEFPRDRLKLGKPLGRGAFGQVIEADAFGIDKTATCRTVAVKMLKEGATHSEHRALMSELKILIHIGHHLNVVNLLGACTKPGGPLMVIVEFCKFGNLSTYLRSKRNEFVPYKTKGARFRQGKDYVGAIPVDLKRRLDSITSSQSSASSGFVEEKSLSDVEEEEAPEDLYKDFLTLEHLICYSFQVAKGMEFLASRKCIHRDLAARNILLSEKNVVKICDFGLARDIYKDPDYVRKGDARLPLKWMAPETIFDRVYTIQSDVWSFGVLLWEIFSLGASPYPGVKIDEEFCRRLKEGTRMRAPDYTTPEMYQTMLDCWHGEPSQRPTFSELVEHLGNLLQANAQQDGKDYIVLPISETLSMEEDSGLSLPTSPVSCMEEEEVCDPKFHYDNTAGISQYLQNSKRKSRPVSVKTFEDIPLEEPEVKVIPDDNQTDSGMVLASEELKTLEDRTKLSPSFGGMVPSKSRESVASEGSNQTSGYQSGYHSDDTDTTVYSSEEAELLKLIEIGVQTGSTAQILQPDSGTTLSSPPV

Structure (SMILES)	activity at 10 µM [1]	activity at 10 µM [2]	activity at 10 µM [3]	activity at 10 µM [4]	activity at 10 µM [5]	activity at 10 µM [6]	activity at 10 µM [7]	activity at 10 µM [8]	activity at 10 µM [9]	inhibition at 10 µM [10]	activity at 10 µM [11]	activity at 10 µM [12]	activity at 10 µM [13]	activity at 10 µM [14]	activity at 10 µM [15]	activity at 10 µM [16]	activity at 10 µM [17]	activity at 10 µM [18]	activity at 10 µM [19]	activity at 10 µM [20]	other results
O=C(Nc1ccc(Cl)cc1)Nc1ccc(Oc2ncnc3sc4c(c23)CCCC4)cc1 [Compound 21d]	82.6%	69.1%	70.1%	66.6%	92.6%	101%	91.4%	86.5%	91.9%	46%	97.7%	98.9%	73.3%	78.4%	93.7%	82.1%	82.9%	83.2%	103%	84.2%	melting point: > 300 °C; activity at 10 µM [21]: 79.5%; activity at 10 µM [22]: 87%; activity at 10 µM [23]: 87.7%; activity at 10 µM [24]: 93.6%
CCOC(=O)c1c(C)oc2ncnc(Nc3ccc(C(=O)NCCc4ccccc4)cc3)c12 [Compound 14e]	64.7%	89%	85.6%	56.6%	87.8%	90.4%	79.6%	99.3%	82.1%	10%	105%	89.5%	65.1%	85.6%	87.5%	82.9%	90.3%	78.6%	92.9%	88.9%	melting point: 176 to 180 °C; activity at 10 µM [21]: 84%; activity at 10 µM [22]: 74.1%; activity at 10 µM [23]: 71.7%; activity at 10 µM [24]: 45.5%
CCOC(=O)c1c(C)oc2ncnc(Nc3ccc(C(=O)Nc4cccc(Cl)c4)cc3)c12 [Compound 14a]	85.5%	93.8%	95.8%	95.3%	105%	115%	117%	94.1%	75.9%	5%	106%	122%	98.2%	92.2%	106%	100%	102%	90.6%	99.7%	87%	melting point: 226 to 230 °C; activity at 10 µM [21]: 102%; activity at 10 µM [22]: 103%; activity at 10 µM [23]: 76.8%; activity at 10 µM [24]: 98%
O=C(Nc1ccccc1)Nc1ccc(Nc2ncnc3sc4c(c23)CCCC4)cc1 [Compound 20a]	114%	102%	91.6%	73.8%	116%	102%	93.5%	99.2%	109%	39%	106%	102%	100%	97.3%	112%	104%	102%	96.2%	106%	99.7%	activity at 10 µM [21]: 95.9%; activity at 10 µM [22]: 100%; activity at 10 µM [23]: 102%; activity at 10 µM [24]: 107%
O=C(Nc1ccc(Nc2ncnc3sc4c(c23)CCCC4)cc1)Nc1cccc(Cl)c1 [Compound 20d]	112%	105%	101%	74.2%	104%	96.8%	93.8%	102%	110%	19%	108%	97.9%	100%	98.1%	104%	110%	96.9%	91.9%	104%	110%	activity at 10 µM [21]: 108%; activity at 10 µM [22]: 106%; activity at 10 µM [23]: 115%; activity at 10 µM [24]: 101%
CCOC(=O)c1c(C)oc2ncnc(Nc3ccc(NC(=O)Nc4cccc(Cl)c4)cc3)c12 [Compound 15d]	50.7%	61%	18.6%	32.3%	61.8%	79.5%	83.9%	73.9%	70.8%	61%	88.6%	81.4%	1.9%	52.9%	65.8%	67.1%	72.3%	43.3%	83.5%	67.7%	activity at 10 µM [21]: 84.6%; activity at 10 µM [22]: 86.4%; activity at 10 µM [23]: 63.6%; activity at 10 µM [24]: 73.7%
